Results from patent EP0109294A2, “Cephalosporin esters” (Takeda Chemical Industries, Ltd., priority 1982, dated 1984).
Where a name gives a salt, the structure may show the parent alone.

Assay: in vivo
Design: species or system mice
Details: mouse, 100 mg/kg; for Bio-availability / AUC / Plasma level of non-ester 2 hr: 120 min; for Plasma level of non-ester 0.25 hr / Plasma level of non-ester 0.5 hr / Plasma level of non-ester 1 hr / AUC / Plasma level of non-ester 2 hr: po; for Plasma level of non-ester 0.25 hr: 15 min; for Plasma level of non-ester 0.5 hr: 30 min; for Plasma level of non-ester 1 hr: 60 min
Procedure: The compounds produced according to the Examples (Compound Nos. 2, 4, 6 and 8) and, as a reference control, pivaloyloxymethyl ester of compound (II) (hereinafter referred to as Compound A) are orally administered to mice at a common dose level of 100 mg/kg (as the non-ester, i.e. compound (II) per mouse). After administration, the plasma concentrations of compound (II) at 0.25, 0.5, 1.0 and 2.0 hours are determined by the cup assay method (using Proteus mirabilis Eb 313 as the test organism) and the area under plasma concentration- time curve (AUC) over 0 to 2 hours is calculated.
As a control, compound (II) is subcutaneously administered to mice at the same dose and the AUC is similarly calculated.

SMILES	Bio-availability	Plasma level of non-ester 0.25 hr [ng/mL]	Plasma level of non-ester 0.5 hr [ng/mL]	Plasma level of non-ester 1 hr [ng/mL]	AUC [ng·h/mL]	Plasma level of non-ester 2 hr [ng/mL]	AUC at 2 h (sc) [ng·h/mL]	concentration at 0.25 h (sc) [ng/mL]	concentration at 0.5 h (sc) [ng/mL]	concentration at 1 h (sc) [ng/mL]	concentration at 2 h (sc) [ng/mL]	Bio-availability (sc)
CC(OC(=O)CC1CCCCC1)OC(=O)C1=C(CSc2nnnn2CCN(C)C)CS[C@@H]2[C@H](NC(=O)Cc3csc(N)n3)C(=O)N12 (stereo partly drawn) [Compound No. 2, 1-(Cyclohexylacetoxy)ethyl 7β-[2-(2-aminothiazol-4-yl)acetamido]-3-[[[1-(2-dimethylaminoethyl)-1H-tetrazol-5-yl]thio]methyl] ceph-3-em-4-carboxylate dihydrochloride]	107.7	43900	45200	16400	41800	3100	–	–	–	–	–	–
CC(OC(=O)CC1CCCC1)OC(=O)C1=C(CSc2nnnn2CCN(C)C)CS[C@@H]2[C@H](NC(=O)Cc3csc(N)n3)C(=O)N12 (stereo partly drawn) [Compound No. 6, 1-(Cyclopentylacetoxy)ethyl 7β-[2-(2-aminothiazol-4-yl)acetamido]-3-[[[1-(2-dimethylaminoethyl)-1H-tetrazol-5-yl]thio]methyl] ceph-3-em-4-carboxylate dihydrochloride]	82.2	23200	27200	16900	31900	6460	–	–	–	–	–	–
CN(C)CCn1nnnc1SCC1=C(C(=O)O)N2C(=O)[C@@H](NC(=O)Cc3csc(N)n3)[C@H]2SC1 [compound (II), 7S-[2-(2-aminothiazol-4-yl)-acetamido]-3-[[[1-(2-dimethylaminoethyl)-1H-tetrazol-5-yl]thio]methyl]ceph-3-em-4-carboxylic acid, reference compound]	–	–	–	–	–	–	38800	69200	29000	13200	1500	100

The remaining lines, values ahead:

Bio-availability	Plasma level of non-ester 0.25 hr [ng/mL]	Plasma level of non-ester 0.5 hr [ng/mL]	Plasma level of non-ester 1 hr [ng/mL]	AUC [ng·h/mL]	Plasma level of non-ester 2 hr [ng/mL]	AUC at 2 h (sc) [ng·h/mL]	concentration at 0.25 h (sc) [ng/mL]	concentration at 0.5 h (sc) [ng/mL]	concentration at 1 h (sc) [ng/mL]	concentration at 2 h (sc) [ng/mL]	Bio-availability (sc)	SMILES
41.8	21000	16200	6100	16200	600	–	–	–	–	–	–	CN(C)CCn1nnnc1SCC1=C(C(=O)OCOC(=O)C(C)(C)C)N2C(=O)[C@@H](NC(=O)Cc3csc(N)n3)[C@H]2SC1 [Compound A, pivaloyloxymethyl ester of compound (II), reference compound]
76.2	43600	31700	8380	29600	1010	–	–	–	–	–	–	CC(OC(=O)C1=C(CSc2nnnn2CCN(C)C)CS[C@@H]2[C@H](NC(=O)Cc3csc(N)n3)C(=O)N12)OC(=O)C1CCCCC1 (stereo partly drawn) [Compound No. 4, 1-(Cyclohexanecarbonyloxy)ethyl 7β-[2-(2-amino-thiazol-4-yl)acetamido]-3-[[[1-(2-dimethylaminoethyl)-1H-tetrazol-5-yl]thio]methyl] ceph-3-em-4-carboxylate dihydrochloride]
78.3	42500	29900	10500	30400	1350	–	–	–	–	–	–	CC(OC(=O)C1=C(CSc2nnnn2CCN(C)C)CS[C@@H]2[C@H](NC(=O)Cc3csc(N)n3)C(=O)N12)OC(=O)C1CCCC1 (stereo partly drawn) [Compound No. 8, 1-(Cyclopentanecarbonyloxy)ethyl 7β-[2-(2-aminothiazol-4-yl)acetamido]-3-[[[1-(2-dimethylaminoethyl)-1H-tetrazol-5-yl]thio]methyl] ceph-3-em-4-carboxylate dihydrochloride]
